# According to patent US12178981B2, “Drug administration method” (Takeda Pharmaceutical Company Limited, priority 2017, dated 2024):
# What was measured:
# [1] = tested on: BBB; test: BBB permeation experiment of FITC dextran using rat (Example 6); conditions: ultrasound exposure using nano-bubble water of Reference Example 1
# Protocol: The administration solution (0.4 mL) was injected into the rat tail vein at 1 mL/min using an injection tube and a needle of appropriate sizes (both sterilized disposable products). Using an ultrasound gene transfer apparatus (Sonitron GTS) manufactured by Nepa Gene Co., Ltd., exposure was performed for 60 sec at frequency 1 MHz and ultrasound intensity 2 W/cm^2 (n=3).
# • fluorescence wavelength: 520 nm • excitation wavelength: 494 nm • flash number: 6 times
# [2] = BBB permeation experiment of fluorescein using BBB Kit (Example 1); format: in vitro ADME; conditions: rat, 2 hr, read-out: permeability coefficient (Papp)
# Protocol: (§1) Using this D-PBS, fluorescein (fluorescein sodium manufactured by Wako Pure Chemical Industries, Code No. 213-00092) was dissolved to prepare a fluorescein stock solution.
# (§2) The permeability coefficient (Papp) was calculated from the measured fluorescein concentration, and the intracerebral transferability of fluorescein (BBB permeability) was calculated.
# (§3) • fluorescence wavelength: 520 nm • excitation wavelength: 480 nm • flash number: 6 times
# [3] = tested on: BBB Kit™ (RBT-24H); test: as above; format: in vitro ADME; conditions: nano-bubble water (PS80); ultrasound exposure at not less than 100 mW/cm^2
# Protocol: as §1, §2, §3
# [4] = BBB permeation experiment of fluorescein using BBB Kit, two nano-bubble waters (Example 4); format: in vitro ADME; conditions: rat, 2 hr, read-out: permeability coefficient (Papp)
# Protocol: (§4) In addition, the fluorescein stock solution and the nano-bubble water prepared in Reference Example 2 were diluted with D-PBS such that the fluorescein concentration was 1 μM and nano-bubble density was 2×10^8 bubbles to prepare a culture solution B (volume: 500 μL) (n=2).
# as §2
# [5] = tested on: BBB Kit™ (RBT-24H); test: as above; format: in vitro ADME; conditions: culture medium A (Reference Example 1) and culture medium B (Reference Example 2); ultrasound exposure at not less than 100 mW/cm^2
# Protocol: as §4, §2
# [6] = tested on: brain tissue; conditions: ddY mice; nano-bubbles (about 400 nm) and 5-FU in combination; brain tissue exposed to ultrasound; cited from earlier work
# [7] = control: fluorescein 1 μM in D-PBS without nano-bubble water
compound,measurement,setting,value
fluorescein isothiocyanate dextran [FITC dextran],brain transferability compared with the control,[1],promotion of brain transferability
"O=C1OC2(c3ccc(O)cc3Oc3cc(O)ccc32)c2ccccc21 [fluorescein, fluorescein sodium]","Papp at 2 h, 1 μM",[2]; [7],0.574 ×10⁻⁶ cm/s
same,"Papp at 2 h, 1 μM","[2]; fluorescein 1 μM + nano-bubble water (PS80) 2×10^8 bubbles, ultrasound 100 mW/cm^2, 1 MHz, 10 sec",11.2 ×10⁻⁶ cm/s
same,"Papp at 2 h, 1 μM","[2]; fluorescein 1 μM + nano-bubble water (PS80) 2×10^8 bubbles, ultrasound 250 mW/cm^2, 1 MHz, 10 sec",10.6 ×10⁻⁶ cm/s
same,"Papp at 2 h, 1 μM","[2]; fluorescein 1 μM + nano-bubble water (PS80) 2×10^8 bubbles, ultrasound 500 mW/cm^2, 1 MHz, 10 sec",12.7 ×10⁻⁶ cm/s
same,BBB permeability compared with the control,[3],clear promotion of BBB permeability
same,"Papp at 2 h, 1 μM",[4]; [7],1.79 ×10⁻⁶ cm/s
same,"Papp at 2 h, 1 μM","[4]; culture medium A (Reference Example 1 nano-bubble water, 2×10^8 bubbles), fluorescein 1 μM, ultrasound 100 mW/cm^2, 1 MHz, 10 sec",11.1 ×10⁻⁶ cm/s
same,BBB permeability compared with the control,[5],clear promotion of BBB permeability
"O=c1[nH]cc(F)c(=O)[nH]1 [5-FU, fluorouracil]",duration for which transfer into the brain was observed,[6],at least 24 hr
